Source: patent US20240382438A1, “Calcium Channel Blockers and Methods Thereof” (University of Maryland, Eastern Shore, priority 2023, published 2024)
Entries after “also recorded” stand apart in the source; their conditions may differ. Blank lines part the entries; values can stand above or below the compound they belong to.

Tests used:
[1] = test system: differentiated ND7/23 cells; test: Intracellular calcium signals in differentiated ND7/23 cells stimulated with KCl or ionomycin; type: cell-based, mouse neuroblastoma and rat dorsal root ganglion cells; conditions: 10 μM, control cells
Protocol: FIGS. 14A-C. Effect of RHB121 on the intracellular calcium signals generated in differentiated ND7/23 cells following stimulation with 30 mM extracellular K+ ions or the calcium ionophore ionomycin (10 μM). FIG. 14A. […] FIG. 14B. […] FIG. 14C. Relative changes in the intracellular calcium signal generated in differentiated ND7/23 cells by 30 mM KCl or Ionomycin (10 μM) in control or RHB121-treated cells. Control groups were arbitrarily assigned a 100% intracellular calcium signal.
To assess the effect of RHB121 on intracellular calcium signals, differentiated ND7/23 cells with a high potassium concentration (30 mM KCl) were simulated. The effect of the calcium ionophore Ionomycin, which also can increase intracellular calcium by a different mechanism, independently of T-type Ca^2+ channel activation, was also tested. Stimulation of differentiated ND7/23 with 30 mM KCl external solution caused a small increase in the intracellular calcium signal (FIG. 14A).

human Cav3.2 = biological target: T1, human Cav3.2 (Homo sapiens, UniProt O95180); test: Whole-cell patch clamp of T-type Ca2+ currents in Cav3.2-stable transfected HEK 293 cells; type: cell-based; conditions: for Effect on T-type Ca2+ current density: vs non-treated cells
T1 construct: host or cells: HEK 293
Protocol: Certain exemplary embodiments have undergone target identification studies to discover a better officious T-type calcium blocker. The fourteen trifluoromethylated N-benzamide enaminone compounds were synthesized, purified, and structure confirmed using gas chromatography/mass spectroscopy, nuclear magnetic resonance, and elemental analysis. Preliminary in vitro whole cell patch clamp experiments were performed to assess the inhibitory effects of several target analogs on voltage-activated calcium currents in human embryonic kidney (HEK-293) cells. Cav3.2 transfected HEK 293 cells were treated with 50 μM of test compounds and compared to the control group (none pretreated HEK 293 cells).
(§1) ND7/23 cells are derived from the fusion of mouse neuroblastoma and rat dorsal root ganglion cells, which generates a more homogeneous sensory neuron-like cell population. ND7/23 cells were purchased from Sigma-Aldrich (RRID:CVCL_4259). Culture and differentiation of ND7/23 cells was performed as previously described. Briefly, ND7/23 cells were cultured in DMEM/F12 culture media (Millipore, Cat. #DF-041-B), supplemented with 0.5% fetal bovine serum (Invitrogen, Cat. #10437010), db-cAMP (1 mM, Sigma-Aldrich, Cat. #D0627), and nerve growth factor (NGF, 50 ng/mL, Sigma-Aldrich, Ca. #N2513). To remove any proliferating cells, cultures were treated with uridine (20 μM, Sigma-Aldrich, Cat. #U3003) and fluorodeoxyuridine (20 μM, Sigma-Aldrich, Cat. #F0503). Cells were maintained in differentiation media without uridine and fluorodeoxyuridin after induction of differentiation. ND7/23 cells were maintained in differentiation media for ≤6 days. HEK 293 cells that were stabled transfected with the human Cav3.2 and Cav3.3 channel subunits were a gift of Dr. E. Perez-Reyes (University of Virginia). Cav3.2 (or Cav3.3)-stabled transfected HEK 293 cells were culture in DMEM/F12 culture media, supplemented with 5% fetal bovine serum, 50 U/mL penicillin and 50 μg/mL streptomycin. ND7/23 and HEK 293 cells were grown in an incubator at 37° C. in the presence of 5% CO2/95% air humidified atmosphere. Cells passaged less than 20 times were used in this work. Cells were grown in poly-D-lysine-coated glass coverslips for electrophysiological recordings.
Whole cell recordings were performed as previously described. A Nikon Eclipse Ti inverted microscope equipped with Hoffman optics and epifluorescence filters was used to visualize individual cells. Recordings were performed at room temperature (22-24° C.) using glass electrodes made from thin wall borosilicate glass (3-5 MΩ). For electrophysiological recordings of inward Ca^2+ currents, outward K^+ currents were eliminated by equimolar substitution of K^+ with Cs^+ in the pipette solution, whereas inward Na^+ currents were eliminated by the use of TEA ions in the external solution, which are unable to go through voltage-gated Na^+ channels. The pipette solution consisted of (in mM) CsCl (120), MgCl2(2), HEPES (10), EGTA (10), ATP (1), and GTP (0.1), pH 7.4 with CsOH. The composition of the normal external saline used for measurements of Ca^2+ currents was (in mM): tetraethylammonium chloride (TEACl, 145), CaCl2 (10), MgCl2(1), HEPES (10), and glucose (5), pH 7.4 adjusted with CsOH. Ca^2+ currents were generated by applying a 200-500 ms-depolarizing step to various potentials from a holding potential of −100 mV. The external solution used to measure Na^+ currents contained (in mM) NaCl (145), KCl (5.3), CaCl2 (0.5), MgCl2 (5.7), HEPES (13), and glucose (5), pH 7.4 adjusted with KOH. The composition of the CsCl-pipette solution used to record Na^+ currents was the same describe above. Na^+ currents were generated by applying a 20 ms-depolarizing step to various potentials from a holding potential of −100 mV. To assess drug-evoked changes on specific ionic conductances, current amplitudes were expressed as current densities as previously reported. […]

T-type Ca^2+ channels = test: Whole-cell recording of T-type Ca2+ currents in differentiated ND7/23 cells; type: cell-based, mouse neuroblastoma and rat dorsal root ganglion cells; conditions: 50 μM, differentiated ND7/23 cells, vs non-treated cells
Protocol: as §1
Whole cell recordings were performed as previously described. A Nikon Eclipse Ti inverted microscope equipped with Hoffman optics and epifluorescence filters was used to visualize individual cells. Recordings were performed at room temperature (22-24° C.) using glass electrodes made from thin wall borosilicate glass (3-5 MΩ). For electrophysiological recordings of inward Ca^2+ currents, outward K^+ currents were eliminated by equimolar substitution of K^+ with Cs^+ in the pipette solution, whereas inward Na^+ currents were eliminated by the use of TEA ions in the external solution, which are unable to go through voltage-gated Na^+ channels. The pipette solution consisted of (in mM) CsCl (120), MgCl2(2), HEPES (10), EGTA (10), ATP (1), and GTP (0.1), pH 7.4 with CsOH. The composition of the normal external saline used for measurements of Ca^2+ currents was (in mM): tetraethylammonium chloride (TEACl, 145), CaCl2 (10), MgCl2(1), HEPES (10), and glucose (5), pH 7.4 adjusted with CsOH. Ca^2+ currents were generated by applying a 200-500 ms-depolarizing step to various potentials from a holding potential of −100 mV. The external solution used to measure Na^+ currents contained (in mM) NaCl (145), KCl (5.3), CaCl2 (0.5), MgCl2 (5.7), HEPES (13), and glucose (5), pH 7.4 adjusted with KOH. The composition of the CsCl-pipette solution used to record Na^+ currents was the same describe above. Na^+ currents were generated by applying a 20 ms-depolarizing step to various potentials from a holding potential of −100 mV. To assess drug-evoked changes on specific ionic conductances, current amplitudes were expressed as current densities as previously reported. To assess current densities, cell size was normalized by dividing current amplitudes by cell capacitance. Cell capacitance was determined by integrating the transient current evoked by a 10-mV voltage step from a holding potential of −60 mV.
A MULTICLAMP 700A amplifier and PCLAMP software (Axon Instruments) was used to deliver voltage commands and to perform data acquisition and analysis. Pipette offset, whole cell capacitance, and series resistance were compensated automatically with the MultiClamp 700B Commander. Only cells with stable seals and series resistance (≤10 MΩ) were analyzed. Sampling rates were between 5 and 10 kHz. Leak currents were subtracted online using a P/4 protocol. […]

T1 sequence (O95180 whole entry): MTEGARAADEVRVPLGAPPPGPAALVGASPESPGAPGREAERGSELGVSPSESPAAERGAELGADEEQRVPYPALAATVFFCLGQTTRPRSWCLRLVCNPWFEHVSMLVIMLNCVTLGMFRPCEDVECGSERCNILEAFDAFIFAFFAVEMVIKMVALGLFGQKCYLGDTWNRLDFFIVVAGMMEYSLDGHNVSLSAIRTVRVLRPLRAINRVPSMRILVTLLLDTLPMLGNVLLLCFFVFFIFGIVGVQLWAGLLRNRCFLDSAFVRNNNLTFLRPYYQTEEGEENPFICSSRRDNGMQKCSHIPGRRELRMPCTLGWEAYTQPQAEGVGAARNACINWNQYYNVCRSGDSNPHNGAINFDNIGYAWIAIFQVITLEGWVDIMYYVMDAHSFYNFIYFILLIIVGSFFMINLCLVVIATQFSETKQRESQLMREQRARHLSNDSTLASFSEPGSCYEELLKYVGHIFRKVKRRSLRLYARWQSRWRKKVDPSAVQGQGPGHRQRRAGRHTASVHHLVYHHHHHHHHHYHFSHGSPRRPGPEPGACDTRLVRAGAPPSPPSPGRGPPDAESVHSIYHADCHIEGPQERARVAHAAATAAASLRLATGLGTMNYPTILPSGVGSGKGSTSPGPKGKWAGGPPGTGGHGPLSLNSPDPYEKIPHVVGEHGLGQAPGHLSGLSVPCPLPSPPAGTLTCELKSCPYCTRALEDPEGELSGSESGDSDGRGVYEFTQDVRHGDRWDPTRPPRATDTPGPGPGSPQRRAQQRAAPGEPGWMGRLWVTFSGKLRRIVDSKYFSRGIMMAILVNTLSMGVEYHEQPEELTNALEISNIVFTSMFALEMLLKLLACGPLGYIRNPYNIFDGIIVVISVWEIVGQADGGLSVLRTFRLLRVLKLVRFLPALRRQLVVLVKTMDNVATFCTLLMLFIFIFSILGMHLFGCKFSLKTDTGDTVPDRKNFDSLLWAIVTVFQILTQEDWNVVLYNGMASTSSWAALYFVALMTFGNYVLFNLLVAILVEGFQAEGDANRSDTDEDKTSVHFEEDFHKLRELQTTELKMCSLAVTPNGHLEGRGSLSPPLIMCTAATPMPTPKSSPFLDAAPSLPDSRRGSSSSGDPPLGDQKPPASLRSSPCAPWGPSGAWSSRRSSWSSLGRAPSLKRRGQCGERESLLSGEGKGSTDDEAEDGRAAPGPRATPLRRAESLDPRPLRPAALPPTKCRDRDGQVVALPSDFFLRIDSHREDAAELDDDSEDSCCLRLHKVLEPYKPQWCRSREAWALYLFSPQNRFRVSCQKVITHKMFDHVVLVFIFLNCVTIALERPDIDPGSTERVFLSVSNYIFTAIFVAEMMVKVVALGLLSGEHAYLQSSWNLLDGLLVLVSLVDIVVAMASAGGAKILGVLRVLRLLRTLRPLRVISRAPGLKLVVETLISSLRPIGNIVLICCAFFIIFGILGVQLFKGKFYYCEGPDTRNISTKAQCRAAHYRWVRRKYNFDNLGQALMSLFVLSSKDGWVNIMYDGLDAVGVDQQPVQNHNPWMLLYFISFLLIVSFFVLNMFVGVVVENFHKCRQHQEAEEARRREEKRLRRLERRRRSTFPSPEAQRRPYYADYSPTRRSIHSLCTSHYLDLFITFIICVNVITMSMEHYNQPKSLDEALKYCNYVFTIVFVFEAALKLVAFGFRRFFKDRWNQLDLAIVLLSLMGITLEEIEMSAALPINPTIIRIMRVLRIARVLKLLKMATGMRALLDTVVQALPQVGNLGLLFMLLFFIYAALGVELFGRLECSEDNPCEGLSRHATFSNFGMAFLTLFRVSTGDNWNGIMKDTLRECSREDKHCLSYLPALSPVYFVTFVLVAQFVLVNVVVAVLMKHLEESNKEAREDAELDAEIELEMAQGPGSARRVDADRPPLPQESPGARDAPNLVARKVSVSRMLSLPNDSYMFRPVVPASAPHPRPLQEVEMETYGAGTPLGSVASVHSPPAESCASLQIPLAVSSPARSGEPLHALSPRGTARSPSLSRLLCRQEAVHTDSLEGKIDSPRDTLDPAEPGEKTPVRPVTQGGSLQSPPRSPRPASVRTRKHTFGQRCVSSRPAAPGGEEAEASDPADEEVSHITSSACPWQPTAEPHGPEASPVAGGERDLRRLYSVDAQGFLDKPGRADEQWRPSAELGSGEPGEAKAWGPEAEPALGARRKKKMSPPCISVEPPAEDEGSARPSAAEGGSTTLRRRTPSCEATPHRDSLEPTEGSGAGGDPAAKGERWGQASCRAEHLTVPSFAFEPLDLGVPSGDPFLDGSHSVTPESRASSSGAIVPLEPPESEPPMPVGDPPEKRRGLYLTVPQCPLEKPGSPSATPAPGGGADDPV

SMILES: C[C@H](CCC(=O)O)C[C@H](C)C[C@H](C)C(=O)/C=C(\O)[C@H](C)C[C@H](C)C/C=C/[C@@H](C)[C@@H](O)[C@@H](C)[C@@H](O)C[C@@H]1CC[C@@](C)([C@H]2CC[C@@](C)([C@@H](C)O)O2)O1 [Ionomycin, reference compound]
Change in intracellular calcium signal on stimulation [1]: significant increase

SMILES: O=C1C=C(NC(=O)c2cc(F)cc(F)c2)CC(C(F)(F)F)C1 (centres unmarked) [RHB107]
Effect on whole cell capacitance (human Cav3.2; 50 μM, HEK 293-Cav3.2 cells): no significant changes; also recorded: no effect on cell capacitance

SMILES: CC1CC(=O)C=C(NC(=O)c2ccc(C(F)(F)F)cc2)C1 (centres unmarked) [THA40, N-(5-methyl-3-oxocyclohex-1-en-1-yl)-4-(trifluoromethyl) benzamide]
Effect on T-type Ca2+ current density (T-type Ca^2+ channels): None of the tested compounds has any effect
Effect on T-type Ca2+ current density (T-type Ca^2+ channels; listed as TTA40): no effect on Ca^2+ current densities

Second part, led by results:

Effect on T-type Ca2+ current density (human Cav3.2; 50 μM, HEK 293-Cav3.2 cells): No inhibitory effect
SMILES: Cc1cc(C)cc(C(=O)NC2=CC(=O)CC(C)C2)c1 (centres unmarked) [RHB59, 3,5-dimethyl-N-(5-methyl-3-oxocyclohex-1-en-1-yl)benzamide]

Effect on T-type Ca2+ current density (human Cav3.2; 50 μM, HEK 293-Cav3.2 cells): No inhibitory effect
SMILES: O=C1C=C(NC(=O)c2cccc(C(F)(F)F)c2F)CC(C(F)(F)F)C1 (centres unmarked) [RHB103]

inhibition at 50 µM (human Cav3.2; HEK293, 50 μM, Cav3.2 transfected HEK 293 cells, read-out: Inhibition of calcium currents on T-type calcium channels): 90%
SMILES: O=C1C=C(NC(=O)c2cc(C(F)(F)F)cc(C(F)(F)F)c2)CC(C(F)(F)F)C1 (centres unmarked) [RHB-77, N-(3-oxo-5-(trifluoromethyl)cyclohex-1-en-1-yl)-3,5-bis(trifluoromethyl)benzamide]
Concentration dependence of the inhibition of T-type Ca2+ currents (human Cav3.2; HEK 293-Cav3.2 cells): significant inhibition of T-type calcium currents in a concentration-dependent manner
